According to patent publication US20060046976A1, “Method for increasing the bone mineral density and bone micro-architecture or connectivity of a mammal using N-acylated glucosamines” (priority 2004, published 2006):

System: SCW-arthritis rats
Assay: Micro-CT three-dimensional trabecular bone measurements of proximal tibia, SCW-arthritis rats
Type: in vivo, Lewis type rats
Excerpt: In this experiment performed and described herein, there were four groups of Lewis type rats, consisting of eight (8) animals in each group. Lewis type rats had experimental arthritis induced by a single intra-peritoneal injection of streptococcal cell wall antigen (SCW). This type of arthritis has an acute and chronic phase and affects mostly the distal joints in the hind limbs of the animals, and, less so, the knees and hips. Groups 1-3, inclusive, had inflammatory arthritis induced. The compound used in the experiment was used to supplement normal rat chow feed on a daily basis. Feed and water were unrestricted. Group I feed was supplemented with the compound shown in formula II, abbreviated as GlcNBu, at a dose of 200mg/kg/day. Group 3 feed was supplemented with GlcNBu at 20 mg/kg/day. At the end of 6 weeks, the animals were sacrificed, the femurs and tibias were excised, fixed in formalin and the BMD, micro-CT measurements, 3-dimentional measurements and two-dimentional subchondral bone analysis were carried out, by the methods detailed below. • BMD. All the dissected femurs and tibiae were scanned with dual energy x-ray absorptiometry (DXA) were measured at the distal femur, and proximal tibia using a user defined region of interest (ROI). • Micro-CT imaging protocol. The fixed left tibiae were scanned with micro-CT scanner (Explore Locus SP micro CT Scanner, GE Healthcare). The tibias were placed in a water filled specimen tube in a firmed position such that the main axis was kept as parallel as possible to the Z-axis of the micro-CT image coordinate system. The reconstructed tibia images were analyzed with MicroView 2.0 software (GE Healthcare, London, ON) in two and three dimensions. • Three-dimensional trabecular bone measurements. Three dimensional bone analyses were conducted using three selected ROIs using MicroView 2.0 analysis software. On 3D analysis, the tissue volume (3D-TV, mm3) and trabecular bone volume (3D-BV, mm3) were measured directly, and the fractional trabecular bone volume (3D-BV/TV, %) was calculated. […] Another parameter obtained is the structure model index (SMI). The SMI represented the plate-rod characteristics of trabecular structure. In this measure, a negative number is indicative of a plate-like structure containing holes, 0 represents an ideal plate-like structure while 3 represents the ideal rod (cylindrical) structure. Larger SMI values indicate that trabecular structure contains a more rod-like structure in older or diseased bone. • Three-dimensional isosurface. A 3-D isosurface image of each tibia was obtained by a volume-rendering function in MicroView to qualitatively examine the erosive damage in the bone surface. • Two-dimensional subchondral bone analysis. Three coronal sections of proximal tibia were obtained from each 3-D reconstructed tibia image: anterior, central, and posterior (1 mm apart). The subchondral trabecular bone structure and connectivity in the epiphyseal region of the proximal tibia was analyzed using an image processing and analysis system (Quantimet 570, Leica) on the 2-D micro-CT images.

[1] = SCW + GlcNBu High, lateral epiphysis of proximal tibia
[2] = SCW + GlcNBu High, medial epiphysis of proximal tibia
[3] = SCW + GlcNBu High, metaphysis of proximal tibia
[4] = SCW + GlcNBu Low, lateral epiphysis of proximal tibia
[5] = SCW + GlcNBu Low, medial epiphysis of proximal tibia
[6] = SCW + GlcNBu Low, metaphysis of proximal tibia

With CCCC(=O)N[C@H]1C(O)O[C@H](CO)[C@@H](O)[C@@H]1O (stereo partly drawn) [GlcNBu, N-butyryl-D-glucosamine] the “correction in SMI values compared to the untreated group” value (GlcNBu treated groups, three tested areas) was 15-33%, the “Trabecular Bone Volume” value [1] was 36.9 ± 3.7% and the “Trabecular Number” value [1] was 6.0 ± 0.6. The “Trabecular Thickness” value [1] was 0.054 ± 0.008 mm, the “Trabecular Bone Volume” value [2] was 36.3 ± 4.8% and the “Trabecular Number” value [2] was 5.1 ± 0.7. For the same compound, the “Trabecular Thickness” value [2] was 0.066 ± 0.014 mm, the “Trabecular Bone Volume” value [3] was 32.6 ± 4.7% and the “Trabecular Number” value [3] was 8.2 ± 1.5. The “Trabecular Thickness” value [3] was 0.034 ± 0.004 mm, the “Trabecular Bone Volume” value [4] was 33.7 ± 2.7% and the “Trabecular Number” value [4] was 5.8 ± 0.5. The “Trabecular Thickness” value [4] was 0.052 ± 0.008 mm, the “Trabecular Bone Volume” value [5] was 33.1 ± 3.0% and the “Trabecular Number” value [5] was 5.0 ± 0.4. For the same compound, the “Trabecular Thickness” value [5] was 0.062 ± 0.011 mm, the “Trabecular Bone Volume” value [6] was 34.4 ± 9.4% and the “Trabecular Number” value [6] was 7.7 ± 1.3. The “Trabecular Thickness” value [6] was 0.034 ± 0.005 mm, the “trabecular bone volume, trabecular number and thickness decreases in arthritis” value (SCW-arthritis rats, GlcNBu 20 and 200 mg/kg/day, 2D and 3D images) was “corrected by GlcNBu treatment in a dose dependent manner” and the “trabecular separation increase in SCW group” value (SCW-arthritis rats, GlcNBu treatment) was “significantly reduced”. The “increase in metaphyseal trabecular volume from Group2 to the GlcNBu treated groups” value (SCW-arthritis rats, low and high dose groups, p<0.05) was 12%.
